Results on 2 compounds are retold here after publication PMC9001978, “Determining the Effects of Differential Expression of GRKs and β-arrestins on CLR-RAMP Agonist Bias” (Frontiers in Physiology, 2022).

Test [1] deals with free fatty acid receptor 2 (FFAR2). Conditions: ref Wang et al., 2020; cited from earlier work.
In test [2] the test system is β-arrestin-AP2 complex. Conditions: ref Beautrait et al., 2017; cited from earlier work. The text has this: The canonical role of β-arrestins is the desensitisation of G protein signalling; steric hindrance to disrupt G protein-receptor association and acting as scaffolds for proteins which decrease the G protein activity and output e.g. phosphodiesterases (PDEs) ([Perry et al., 2002]). Additionally, β-arrestins mediate agonist dependent internalisation at many GPCRs, through the recruitment of β2-adaptin (AP2) and subsequently clathrin, to mediate endocytosis. […] Barbadin is an inhibitor of the β-arresti ...

The test system of test [3] is CLR-RAMP complexes. The test is described as follows: Effect of barbadin on cAMP accumulation at CLR-RAMP complexes. The format is cell-based. Particulars: all agonists, three CLR-RAMP complexes.
For test [4], the system named is CLR-RAMP complexes. In words: Effect of barbadin on CLR-RAMP internalisation. The format is cell-based. Conditions: any CLR-RAMP complex, at concentration that blocked GLP-1R internalisation.
Test [5] relates to 5-HT2CR. Conditions: ref He et al., 2021; cited from earlier work.
In test [6] the test system is Glucagon-like peptide-1 receptor (GLP-1R). The test is described as follows: Effect on GLP-1R internalisation. Conditions: 100 μM, 30 min preincubation. The format is cell-based.
Test [7] relates to CLR-RAMP complexes. The test is described as follows: Effect of barbadin on cAMP accumulation in β-arrestin KO HEK293 cells. Type of test: cell-based. Conditions: 100 μM barbadin. In general terms: cAMP levels reflect the balance of adenylyl cyclase and phosphodiesterase activity.
Test [8] deals with V2-vasopressin receptor (V2R). Conditions: ref Beautrait et al., 2017; cited from earlier work. The text has this:
(§1) The data we have obtained related to agonist-dependent internalisation of CLR in the presence of barbadin (Figure 3C) appear contradictory when compared to our results obtained with the HEK293∆β-arr1/2 cell lines (Figure 4A).

In test [9] the test system is angiotensin-II type-1 receptor (AT1R). Conditions: ref Beautrait et al., 2017; cited from earlier work.
From the text: as §1

Test [10] deals with protease-activated receptor 2 (PAR2). Particulars: ref Jung et al., 2021; cited from earlier work.
From the text: as §1

Test [11] concerns β2-adrenergic receptor (β2AR). Conditions: ref Beautrait et al., 2017; cited from earlier work.
From the text: as §1

Test [12] deals with T1, CLR-RAMP2 (Homo sapiens, UniProt O60895+Q16602). In words: β-arrestin1 recruitment to CLR-RAMP2 (BRET). Particulars: HEK293T, n = 3. On the technique in general: Recruitment of arrestin is a read-out of receptor activation apart from second messengers.
T1 sequence (Q16602 23-461): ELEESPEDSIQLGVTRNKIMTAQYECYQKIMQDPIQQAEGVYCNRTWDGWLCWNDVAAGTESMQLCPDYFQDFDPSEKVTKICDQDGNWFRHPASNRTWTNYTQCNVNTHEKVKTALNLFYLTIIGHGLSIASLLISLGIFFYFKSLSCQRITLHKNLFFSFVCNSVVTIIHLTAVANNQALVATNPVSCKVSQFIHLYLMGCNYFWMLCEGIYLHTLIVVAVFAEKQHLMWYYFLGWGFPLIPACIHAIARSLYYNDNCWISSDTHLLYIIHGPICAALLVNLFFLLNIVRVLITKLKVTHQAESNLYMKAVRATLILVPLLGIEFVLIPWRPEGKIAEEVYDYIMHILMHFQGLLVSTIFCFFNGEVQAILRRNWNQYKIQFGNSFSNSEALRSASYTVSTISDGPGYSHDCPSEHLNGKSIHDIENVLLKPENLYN
T1 sequence (O60895 43-175): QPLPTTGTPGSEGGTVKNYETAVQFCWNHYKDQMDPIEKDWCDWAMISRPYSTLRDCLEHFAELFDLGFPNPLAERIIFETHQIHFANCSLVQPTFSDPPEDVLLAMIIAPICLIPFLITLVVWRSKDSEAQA
Test [13] concerns the target T2, CLR-RAMP1 (Homo sapiens, UniProt O60894+Q16602). The test is described as follows: Internalisation of CLR-RAMP1 (BRET CLR-Nluc / RIT-Venus). Particulars: HEK293T, CLR-Nluc + FLAG-RAMP1, RIT-Venus BRET; mean ± SEM, n = 3-4. (In general: BRET reads energy transfer from a luciferase to a nearby fluorophore.)
Test [14] concerns the target T2, CLR-RAMP1. In words: β-arrestin2 recruitment to CLR-RAMP1 (BRET). Conditions: HEK293T, n = 3.
Test [15] deals with T2, CLR-RAMP1. In words: β-arrestin1 recruitment to CLR-RAMP1 (BRET). Conditions: HEK293T, n = 3.
Test [16] has as its target T1, CLR-RAMP2. The test is described as follows: cAMP accumulation at CLR-RAMP2.
For test [17], the target named is T3, CLR-RAMP3 (Homo sapiens, UniProt O60896+Q16602). The test is described as follows: Internalisation of CLR-RAMP3 (BRET CLR-Nluc / RIT-Venus). Conditions: HEK293T, CLR-Nluc + FLAG-RAMP3, RIT-Venus BRET; mean ± SEM, n = 4-5.
T3 sequence (Q16602 23-461): as the sequence (Q16602 23-461) above
T3 sequence (O60896 24-148): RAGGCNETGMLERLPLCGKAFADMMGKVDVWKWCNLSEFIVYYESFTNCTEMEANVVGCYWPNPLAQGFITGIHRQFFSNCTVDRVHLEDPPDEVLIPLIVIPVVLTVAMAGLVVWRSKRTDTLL
The target in test [18] is T3, CLR-RAMP3. More on the design: method as in Clark et al., 2021. Conditions: AM receptor 2 (AM2R), ref Clark et al., 2021; cited from earlier work.
Test [19] deals with T1, CLR-RAMP2. The test is described as follows: β-arrestin2 recruitment to CLR-RAMP2 (BRET). Particulars: HEK293T, n = 3.
Test [20] concerns the target T1, CLR-RAMP2. In words: Internalisation of CLR-RAMP2 (BRET CLR-Nluc / RIT-Venus). Conditions: HEK293T, CLR-Nluc + FLAG-RAMP2, RIT-Venus BRET; mean ± SEM, n = 3-4.

Each structure is given as a SMILES string. “Also recorded” adds a separate entry of the source.

T2 sequence (Q16602 23-461): as the sequence (Q16602 23-461) above
T2 sequence (O60894 27-148): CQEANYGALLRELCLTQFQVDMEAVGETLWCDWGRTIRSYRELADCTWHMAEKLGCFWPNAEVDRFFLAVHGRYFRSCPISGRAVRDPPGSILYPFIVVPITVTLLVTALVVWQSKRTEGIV

For `Nn1cnc2scc(-c3ccc(Cc4ccccc4)cc3)c2c1=O` [Barbadin], the “Block of receptor internalisation” value in test [1], in test [5], in test [8], in [9], in [10] and in test [11] was “successfully block” throughout. For the same compound, the “Effect on β-arrestin recruitment” value in test [2] was “without inhibiting β-arrestin recruitment”. In addition, the “Inhibition of β-arrestin-AP2 interaction” value in [2] is on record as “inhibitor of the β-arrestin-AP2 interacting domain”. Also, the “Effect of barbadin on cAMP accumulation” value was “reduce cAMP accumulation” in test [3], “significantly reduce cAMP accumulation; also recorded: significantly attenuated cAMP signalling” in test [3] (listed as barbadin) and “agonist dependent reduction in cAMP accumulation” in [7]. The “Effect of barbadin on agonist-mediated CLR internalisation” value in [4] is “did not block agonist-mediated CLR internalisation; also recorded: no effect on receptor internalisation”. For the same compound, the “Effect on GLP-1R internalisation” value in test [6] is on record as “successfully block”; in [6] (listed as barbadin), “inhibit GLP-1R internalisation”.

Regarding `CSCC[C@H](NC(=O)[C@H](CC(C)C)NC(=O)[C@H](CCC(N)=O)NC(=O)[C@H](Cc1c[nH]c2ccccc12)NC(=O)[C@H](CC(C)C)NC(=O)[C@H](CCCNC(=N)N)NC(=O)[C@H](Cc1c[nH]cn1)NC(=O)[C@H](CO)NC(=O)[C@H](CC(C)C)NC(=O)[C@H](CC(N)=O)NC(=O)[C@H](CCC(N)=O)NC(=O)[C@@H](NC(=O)[C@H](CCC(N)=O)NC(=O)[C@@H]1CSSC[C@H](NC(=O)CNC(=O)[C@@H](NC(=O)[C@H](CCCNC(=N)N)NC(=O)[C@H](CC(C)C)NC(=O)[C@H](CC(C)C)NC(=O)[C@H](CCC(N)=O)NC(=O)[C@H](C)NC(=O)[C@H](CCC(N)=O)NC(=O)[C@@H](N)[C@@H](C)O)C(C)C)C(=O)N[C@@H](C(C)C)C(=O)N[C@@H](CC(C)C)C(=O)NCC(=O)N[C@@H]([C@@H](C)O)C(=O)N1)C(C)C)C(=O)NCC(=O)N1CCC[C@H]1C(=O)N[C@@H](C)C(=O)NCC(=O)N[C@@H](CCCNC(=N)N)C(=O)N[C@@H](CCC(N)=O)C(=O)N[C@@H](CC(=O)O)C(=O)N[C@@H](CO)C(=O)N[C@@H](C)C(=O)N1CCC[C@H]1C(=O)N[C@H](C(=O)N[C@@H](CC(=O)O)C(=O)N1CCC[C@H]1C(=O)N[C@@H](CO)C(=O)N[C@@H](CO)C(=O)N1CCC[C@H]1C(=O)N[C@@H](Cc1c[nH]cn1)C(=O)N[C@@H](CO)C(=O)N[C@@H](Cc1ccc(O)cc1)C(N)=O)C(C)C` [AM2, adrenomedullin 2], the “Emax, β-arrestin1 recruitment” value in [12] (CLR-Nluc + FLAG-RAMP2 + β-arrestin1-YFP, BRET, mean ± SEM) was 3 ± 1 BRET units (x10^-3); in test [12] (GRK2 overexpressed), 7 ± 1 BRET units (x10^-3); in [12] (GRK3 overexpressed) it was 11 ± 1 BRET units (x10^-3); in test [12] (GRK4 overexpressed), 4 ± 1 BRET units (x10^-3); in test [12] (GRK series: Vector) it was 3 ± 1 BRET units (x10^-3); in test [15] (CLR-Nluc + FLAG-RAMP1 + β-arrestin1-YFP, BRET, mean ± SEM), ~63 ± 27 BRET units (x10^-3). In addition, the “Emax, β-arrestin1 recruitment” value in test [15] (GRK2 overexpressed) is reported as ~46 ± 5 BRET units (x10^-3); in [15] (GRK3 overexpressed), ~32 ± 2 BRET units (x10^-3); in test [15] (GRK4 overexpressed) it was ~28 ± 7 BRET units (x10^-3); in test [15] (GRK6 overexpressed), ~10 ± 6 BRET units (x10^-3); in test [15] (GRK series: Vector), ~63 ± 26 BRET units (x10^-3). The “Emax, internalisation” value in [13] was ~-63 ± 41 BRET units (x10^-3); in [17], ~-8 ± 3 BRET units (x10^-3); in [20] it was ~-20 ± 18 BRET units (x10^-3). Moreover, the “Emax, β-arrestin2 recruitment” value in [14] (CLR-Nluc + FLAG-RAMP1 + β-arrestin2-YFP, BRET, mean ± SEM) was ~98 ± 21 BRET units (x10^-3); in test [14] (GRK2 overexpressed) it was ~54 ± 47 BRET units (x10^-3); in test [14] (GRK3 overexpressed), ~49 ± 8 BRET units (x10^-3); in test [14] (GRK4 overexpressed), ~45 ± 4 BRET units (x10^-3); in test [14] (GRK series: Vector), ~98 ± 21 BRET units (x10^-3); in [19] (CLR-Nluc + FLAG-RAMP2 + β-arrestin2-YFP, BRET, mean ± SEM), 9 ± 1 BRET units (x10^-3). Also, the “Emax, β-arrestin2 recruitment” value is 10 ± 2 BRET units (x10^-3) in [19] (GRK4 overexpressed) and 9 ± 1 BRET units (x10^-3) in test [19] (GRK series: Vector). Also, the “Effect of barbadin pretreatment on cAMP accumulation” value in test [16] (AM2 at CLR-RAMP2) is given as “far smaller”. The “Change in cAMP potency on β-arrestin2 overexpression” value in test [16] (CLR-RAMP2, HEK293T, p = 0.02) is “significant decrease in potency”. Besides, the “Rank order of potency” value in test [18] is “equipotent agonists”.
